According to patent US4083994A, “Choleretics” (Hisamitsu Pharmaceutical Co., Inc., priority 1975, dated 1978):

Assays:
[1] = test system: sleeping time induced by hexobarbital; experiment: Effects on the sleeping time induced by hexobarbital (metabolism function of the liver); assay type: in vivo, male rats of Wistar strain; settings: rats, 250 mg/kg oral once daily for a week; hexobarbital sodium 100 mg/kg i.p.; control 17.1 ± 0.9
Method: About 500 mg of the test drugs were weighed accurately and suspended in 2 ml of 5% gum arabic aqueous solution. Ten male rats of Wistar strain were used per group and given orally the test drugs prepared above in a volume of 0.1 ml/100 g body weight (equivalent to 250 mg/kg), once daily (at 8.30-9.00 a.m.), for a week. The animals were fasted overnight after the last administration of the test drugs. Subsequently, 10% hexobarbital sodium aqueous solution was injected intraperitoneally in a volume of 0.1 ml (equivalent to 100 mg/kg) and the sleeping time was measured. The animals were regarded as sleeping when the loss of righting reflex persist for more than 30 seconds.

[2] = Acute toxicity test in mice; settings: mouse, in vivo, oral, parentheses: 95% confidence limit
Method: (§1) The test drugs were suspended in 5% gum arabic aqueous solution to make 50 mg/ml, and given orally male mice of ddY strain weighing 18-22 g and male rats of Wistar strain weighing 95-120 g. The LD50 values were calculated from the mortality of the animals that ensued during the 72 hours following the drug administration

bile secretion [3] = experiment: Bile secretion test in rats; assay type: in vivo, male Wistar rats; settings: oral; for Bile volume secreted after administration: rat, volume in 1 h before administration = 100%; for Volume of bile secreted relative to one hour before administration: rats
Method: Male Wistar rats weighing 200-210 g were fasted overnight and laparotomized under urethane anesthesia(Subcutaneous injection at a dose of 1.5 g/kg). A polyethylene tube was inserted into the common bile duct. The bile was collected for one hour from 30 minutes after the operation. Subsequently, the animals were given orally the test drugs, each 50 mg of which was suspended in 1 ml of 5% gum arabic aqueous solution. The bile was collected for 5 hours after the drug administration. The volume of the bile secreted at hourly intervals after the drug administration was expressed in %, defining the volume secreted for one hour before the drug administration as 100%, as shown in Table 1.
About 500 mg of p-menth-1-ene-8,9-diol were weighed accurately, and suspended in 10 ml of 5% gum arabic aqueous solution. […] Male rats of Wistar strain weighing 200 g were fasted overnight, anesthetized by subcutanous injection of 0.3 g of urethane and laparotomized. A polyethylene tube was inserted into the common bile duct. The bile was collected for one hour from 30 minutes after the operation. […]
About 500 mg of 9-acetoxy-p-menth-1-en-8-ol was weighed accurately and suspended in 10ml of 5% gum arabic aqueous solution. […] Male rats of Wistar strain weighing about 210 g were fasted overnight and anesthetized by subcutaneous injection of 0.32 g of urethane and then laparotomized. A polyethylene tube was inserted into the common bile duct, and the bile secreted through the duct was collected for one hour from 30 minutes after the operation. Subsequently, the choleretic of the present invention was administered orally in a volume of 1.05 ml (250 mg/kg).

[4] = Acute toxicity test in rats; parameters: species or system male rats of Wistar strain; settings: rat, in vivo, oral, parentheses: 95% confidence limit
Method: as §1

bile secretion [5] = experiment: Bile secretion test in dogs; assay type: in vivo, male mongrel dogs; settings: dog, into duodenum, volume in 1 h before administration = 100%
Method: Male mongrel dogs weighing approximately 8 kg were anesthetized with intravenous injection of […] of pentobarbital and further with subcutaneous injection of urethane at a dose of 1.0 g/kg and laparotomized. One canula was inserted into the common bile duct and directed to the liver for collection of the bile, and the other canula was inserted into the duodenum for the drug administration. The cholecystic duct was ligated and the gallbladder bile was aspirated with an injection syringe. The operation was finished by suture of the peritoneum. The bile was collected for one hour from 30 minutes after the operation. The animals were given the test drugs, each 50 mg of which was suspended in 1 ml of 5% gum arabic aqueous solution, through the canula for the drug administration. The bile was collected at hourly intervals for 6 hours after the drug administration. Defining the volume of the bile secreted for one hour before the drug administration as 100%, the volume secreted at hourly intervals after the drug administration was expressed in %, as shown in Table 2.
The mean volume secreted for one hour before the drug administration was 1798 μl.
This suspension was used as a choleretic of the present invention. A male mongrel dog weighing 8.8 kg was fasted overnight and anesthetized by subcutaneous injection of 1.0 mg/kg of urethane and laparotomized. One canula was inserted into the common bile duct and directed to the liver for collection of the bile, and the other canula was also inserted into the duodenum for the drug administration. Subsequently, the cholecystic duct was ligated and the gallbladder bile was aspirated with an injection syringe. The operation was finished after suturing the peritoneum. The bile was collected for one hour from 30 minutes after the operation, and subsequently, 44 ml of the test drug prepared above (250 mg/kg) was given through the canula for the drug administration. The volume of the bile secreted for the first, second and third one hour after the drug administration were 2.2, 2.1 and 1.9 times larger, respectively, than that secreted for one hour before the drug administration.
About 2.5 g of 9-propionyloxy-p-menth-1-en-8-ol was weighed accurately and suspended in 50 ml of 5% gum arabic aqueous solution. This suspension was used as a choleretic of the present invention. A male mongrel dog weighing 7.6 kg was fasted overnight and anesthetized by subcutaneous injection of 1.0 mg/kg of urethane and then laparotomized. One canula was inserted into the common bile duct and directed to the liver for collection of the bile, and the other canula into the duodenum for the drug administration. Subsequently, the cholecystic duct was ligated and the gallbladder bile was aspirated with an injection syringe. The operation was finished by suturing the peritoneum. The bile was collected for one hour from 30 minutes after the operation, and 50 ml (330 mg/kg) of the test drug prepared above was administered through the canula for the drug administration. The volume of the bile secreted for the first, second and third one hour after the drug administration was 3.2, 5.0 and 4.7 times larger, respectively, than that secreted for one hour before the drug administration.

CC(=O)OCC(C)(O)C1CC=C(C)CC1 (stereo not shown) [9-Acetoxy-p-menth-1-en-8-ol, 9-acetoxy-p-menth-1-en-8-ol]
Sleeping time [1]: 18.1 ± 1.5 min | LD50 at 72 h [2]: 1000 to 2000 mg/kg | Bile volume secreted after administration (bile secretion [3]; 100 mg/kg, 0-1 hr): 125% | Bile volume secreted after administration (bile secretion [3]; 100 mg/kg, 1-2 hr): 109% | Bile volume secreted after administration (bile secretion [3]; 100 mg/kg, 2-3 hr): 96% | Bile volume secreted after administration (bile secretion [3]; 100 mg/kg, 3-4 hr): 82% | Bile volume secreted after administration (bile secretion [3]; 100 mg/kg, 4-5 hr): 75% | Bile volume secreted after administration (bile secretion [3]; 310 mg/kg, 0-1 hr): 196% | Bile volume secreted after administration (bile secretion [3]; 310 mg/kg, 1-2 hr): 172% | Bile volume secreted after administration (bile secretion [3]; 310 mg/kg, 2-3 hr): 145% | Bile volume secreted after administration (bile secretion [3]; 310 mg/kg, 3-4 hr): 124% | Bile volume secreted after administration (bile secretion [3]; 310 mg/kg, 4-5 hr): 114% | Bile volume secreted after administration (bile secretion [3]; 930 mg/kg, 0-1 hr): 218% | Bile volume secreted after administration (bile secretion [3]; 930 mg/kg, 1-2 hr): 203% | Bile volume secreted after administration (bile secretion [3]; 930 mg/kg, 2-3 hr): 172% | Bile volume secreted after administration (bile secretion [3]; 930 mg/kg, 3-4 hr): 154% | Bile volume secreted after administration (bile secretion [3]; 930 mg/kg, 4-5 hr): 130% | Volume of bile secreted relative to one hour before administration (bile secretion [3]; 250 mg/kg, first hour): 1.9 times | Volume of bile secreted relative to one hour before administration (bile secretion [3]; 250 mg/kg, second hour): 1.7 times | Volume of bile secreted relative to one hour before administration (bile secretion [3]; 250 mg/kg, third hour): 1.4 times | LD50 at 72 h [4]: 8300 mg/kg | Bile volume secreted after administration (bile secretion [5]; 310 mg/kg, 0-1 hr): 395% | Bile volume secreted after administration (bile secretion [5]; 310 mg/kg, 1-2 hr): 457% | Bile volume secreted after administration (bile secretion [5]; 310 mg/kg, 2-3 hr): 534% | Bile volume secreted after administration (bile secretion [5]; 310 mg/kg, 3-4 hr): 464% | Bile volume secreted after administration (bile secretion [5]; 310 mg/kg, 4-5 hr): 277% | Bile volume secreted after administration (bile secretion [5]; 310 mg/kg, 5-6 hr): 157%

CC1=CCC(C(C)(O)CO)CC1 (stereo not shown) [p-Menth-1-ene-8,9-diol, p-menth-1-ene-8,9-diol]
Sleeping time [1]: 17.8 ± 0.3 min | LD50 at 72 h [2]: 1800 mg/kg | Bile volume secreted after administration (bile secretion [3]; 80 mg/kg, 0-1 hr): 155% | Bile volume secreted after administration (bile secretion [3]; 80 mg/kg, 1-2 hr): 118% | Bile volume secreted after administration (bile secretion [3]; 80 mg/kg, 2-3 hr): 101% | Bile volume secreted after administration (bile secretion [3]; 80 mg/kg, 3-4 hr): 93% | Bile volume secreted after administration (bile secretion [3]; 80 mg/kg, 4-5 hr): 85% | Bile volume secreted after administration (bile secretion [3]; 250 mg/kg, 0-1 hr): 213% | Bile volume secreted after administration (bile secretion [3]; 250 mg/kg, 1-2 hr): 170% | Bile volume secreted after administration (bile secretion [3]; 250 mg/kg, 2-3 hr): 122% | Bile volume secreted after administration (bile secretion [3]; 250 mg/kg, 3-4 hr): 99% | Bile volume secreted after administration (bile secretion [3]; 250 mg/kg, 4-5 hr): 89% | Bile volume secreted after administration (bile secretion [3]; 750 mg/kg, 0-1 hr): 218% | Bile volume secreted after administration (bile secretion [3]; 750 mg/kg, 1-2 hr): 199% | Bile volume secreted after administration (bile secretion [3]; 750 mg/kg, 2-3 hr): 175% | Bile volume secreted after administration (bile secretion [3]; 750 mg/kg, 3-4 hr): 153% | Bile volume secreted after administration (bile secretion [3]; 750 mg/kg, 4-5 hr): 139% | Volume of bile secreted relative to one hour before administration (bile secretion [3]; 250 mg/kg, first hour): 2.1 times | Volume of bile secreted relative to one hour before administration (bile secretion [3]; 250 mg/kg, second hour): 1.7 times | Volume of bile secreted relative to one hour before administration (bile secretion [3]; 250 mg/kg, third hour): 1.2 times | Bile volume secreted after administration (bile secretion [5]; 250 mg/kg, 0-1 hr): 176% | Bile volume secreted after administration (bile secretion [5]; 250 mg/kg, 1-2 hr): 168% | Bile volume secreted after administration (bile secretion [5]; 250 mg/kg, 2-3 hr): 122% | Bile volume secreted after administration (bile secretion [5]; 250 mg/kg, 3-4 hr): 65% | Bile volume secreted after administration (bile secretion [5]; 250 mg/kg, 4-5 hr): 41%
